Reference: PubChem BioAssay (NCI)
“And” between values parts separate entries of the source, which are not always exact repeats. Equal values may be shown once.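 Protocol summary: plate cells (96-well), add compound at 5 concentrations, incubate 48 h, interpolate endpoints linearly. GI50 marks 50% less growth. Definition used: TGI = concentration required for complete inhibition of growth.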

How the values were obtained:
Assay in all cases: growth of human tumour cells (NCI), 48 h
786-0 renal = system: 786-0 renal
ACHN renal = system: ACHN renal
HL-60(TB) leukemia = system: HL-60(TB) leukemia
HOP-62 NSCLC = system: HOP-62 NSCLC
IGROV1 ovarian = system: IGROV1 ovarian
MALME-3M melanoma = system: MALME-3M melanoma
NCI-H23 lung = system: NCI-H23 lung
SF-539 CNS = system: SF-539 CNS
UO-31 renal = system: UO-31 renal
NCI-H226 lung = system: NCI-H226 lung

Row | SMILES | TGI (786-0 renal) | TGI (ACHN renal) | TGI (HL-60(TB) leukemia) [µM] | TGI (HOP-62 NSCLC) | TGI (IGROV1 ovarian) | TGI (MALME-3M melanoma) [µM] | TGI (NCI-H23 lung) | TGI (SF-539 CNS) | TGI (UO-31 renal) [µM] | GI50 (786-0 renal) [µM] | GI50 (ACHN renal) [µM] | GI50 (HL-60(TB) leukemia) [µM] | GI50 (HOP-62 NSCLC) [µM] | GI50 (IGROV1 ovarian) [µM] | GI50 (MALME-3M melanoma) [µM] | GI50 (NCI-H23 lung) [µM] | GI50 (SF-539 CNS) | GI50 (UO-31 renal) [µM] | TGI (NCI-H226 lung) [µM] | GI50 (NCI-H226 lung) [µM]
1 | NCCCNCc1c2ccccc2c(CNCCCN)c2ccccc12 | 36.2 µM | > 100 µM | 39.3 | 62.6 µM | > 100 µM | 24.2 | 49.7 µM | 28.9 µM | > 100 | – | – | – | – | – | – | – | – | – | – | –
2 | O=C(Nc1ccc(Cl)cc1)c1cc(NCc2cc(O)ccc2O)ccc1O | 19.6 µM | 15.1 µM | 4.86 | 51.7 µM | 38.8 µM | 16.8 | 31.4 µM | 4.16 µM | 3.21 | 6.17 | 3.37 | 1.4 | 22 | 11.2 | 4.34 | 11.8 | 1.73 µM | 1.45 | – | –
3 | O=C(N/C(=C\c1cccc([N+](=O)[O-])c1)c1nc2c3c(ccc2[nH]1)C(=O)c1ccccc1C3=O)c1ccccc1 | > 100 µM | > 100 µM | – | > 100 µM | – | > 100 | > 100 µM | > 100 µM | > 100 | – | – | – | – | – | – | – | – | – | > 100 | –
4 | CCCCCCCCCCNC(=S)OC | > 100 µM | > 100 µM | 44.8 | > 100 µM | > 100 µM | > 100 | > 100 µM | > 100 µM | 85.8 | – | – | – | – | – | – | – | – | – | – | –
5 | COC(=O)CCCCCOS(=O)(=O)c1ccc(C)cc1 | > 100 µM | > 100 µM | > 100 | – | > 100 µM | > 100 | > 100 µM | > 100 µM | > 100 | – | – | – | – | – | – | – | – | – | – | –
6 | O=C(/C=C/c1ccc(-c2ccccc2)cc1)c1ccccc1 | 50.9 µM | > 100 µM | > 100 | – | 69.1 µM | > 100 | 41.8 µM | 32.2 µM | > 100 | – | – | – | – | – | – | – | – | – | 49.3 | –
7 | Cc1cc(C)c([I+]c2c(C)cc(C)cc2C)c(C)c1 | 2.11 µM | 2.47 µM | – | 2.16 µM | – | 1.46 | 1.83 µM | 2.16 µM | 3.7 | 0.749 | 1.17 | – | 0.841 | – | 0.37 | 0.334 | 0.891 µM | 1.57 | 1.92 | 0.505
8 | O=[N+]([O-])c1cc(I)cc(/C=N/NS(=O)(=O)c2ccc(F)cc2)c1O | 82.9 µM | 81.5 µM | 54.4 | 55.8 µM | 95.7 µM | 52.4 | 38.9 µM | 55.8 µM | 61 | – | – | – | – | – | – | – | – | – | – | –
9 | O=C1CC=C2C3CC4N(CCC45c4ccccc4N1C25)C/C3=C\CO (centres undefined) | > 100 µM | > 100 µM | > 100 | – | > 100 µM | > 100 | > 100 µM | > 100 µM | > 100 | – | – | – | – | – | – | – | – | – | > 100 | –
10 | COC(=O)[C@@H](C)C[C@H](Cc1ccccc1)NC(=O)c1csc([C@@H](C[C@H](C(C)C)N(C)C(=O)[C@@H](NC(=O)[C@H]2CCCCN2C)c2ccc(F)cc2)OC(C)=O)n1 | 6.23 µM and 42.5 µM | 25 µM and > 100 µM | – | 25 µM and 40.4 µM | 25 µM and > 100 µM | – | 25 µM and > 100 µM | 0.0662 µM and 0.615 µM | – | – | – | 0.00219 | – | – | – | – | 0.0215 µM and 0.0604 µM | – | – | –
11 | O=c1cccccc1O | > 100 µM | > 100 µM | 43.7 | – | > 100 µM | > 100 | > 100 µM | – | > 100 | – | – | – | – | – | – | – | – | – | > 100 | –
12 | COc1cccc(C2SC(C)C(=O)N2NC(=O)C(O)c2ccccc2)c1 (centres undefined) | > 100 µM | > 100 µM | – | > 100 µM | > 100 µM | > 100 | > 100 µM | > 100 µM | > 100 | > 100 | > 100 | – | > 100 | > 100 | > 100 | > 100 | > 100 µM | > 100 | > 100 | > 100
13 | Cc1ccccc1SC(/C=C/NNC1=NC(c2ccccc2)C(c2ccccc2)=NN1)c1ccccc1 (centres undefined) | 25.9 µM | 42.8 µM | – | 49.4 µM | 80.2 µM | 75.1 | 50.2 µM | 27.6 µM | 48.6 | – | – | – | – | – | – | – | – | – | 52 | –
14 | CCCCSC1CCSc2c1ccc1ccccc21 (centres undefined) | > 100 µM | – | > 100 | > 100 µM | > 100 µM | 46.9 | > 100 µM | > 100 µM | > 100 | – | – | – | – | – | – | – | – | – | – | –
15 | CC(=O)NNc1ncc(C(=O)/C=C/c2ccccc2C)s1 | > 100 µM | > 100 µM | > 100 | > 100 µM | > 100 µM | > 100 | > 100 µM | > 100 µM | > 100 | – | – | – | – | – | – | – | – | – | – | –
16 | Cn1cnc(SC2=CC(=O)C=C3S[C@H]4C[C@@]23c2c(c(O)c3c5c2=NCCC=5C=N3)N4)c1CC(N)C(=O)O (some centres undefined) | 26.8 µM | 29.1 µM | 8.27 | – | 23.9 µM | 5.04 | 15.2 µM | 30.8 µM | 30.3 | 13.6 | 15.6 | 3.18 | – | 11.6 | 2.37 | – | 16.6 µM | 16.4 | 33.8 | 15.8
17 | CON1C(=O)C2(CCCCC2)C(=O)C12C=CC(C)CC2 (centres undefined) | > 100 µM | – | > 100 | > 100 µM | > 100 µM | > 100 | > 100 µM | > 100 µM | > 100 | – | – | – | – | – | – | – | – | – | > 100 | –
18 | COc1cc(/C=C2\C[C@H]3[C@@H]4CC=C5C[C@@H](O)CC[C@]5(C)[C@H]4CC[C@]3(C)[C@H]2O)ccc1OCCN1CCCCC1 | 1.18 µM | 1.37 µM | 3.18 | 1.68 µM | > 26.3 µM | – | 3.21 µM | 2.1 µM | – | 0.47 | 0.706 | 1.33 | 0.799 | 2.35 | – | 1.21 | 1.1 µM | 1.18 | 5.62 | 2.53
19 | CN1CCN(c2ccncc2S(=O)(=O)N2CCN(C)CC2)CC1 | > 100 µM | > 100 µM | – | > 100 µM | > 100 µM | > 100 | > 100 µM | > 100 µM | > 100 | – | – | – | – | – | – | – | – | – | > 100 | –
20 | Nc1ccc(C(=O)CC2(O)C(=O)Nc3ccccc32)cc1 (centres undefined) | > 100 µM | > 100 µM | > 100 | – | > 100 µM | > 100 | > 100 µM | > 100 µM | > 100 | – | – | – | – | – | – | – | – | – | > 100 | –
21 | Cn1nc(-c2ccccc2)c2c(/C=C/c3ccc(F)cc3)onc2c1=O | > 100 µM | > 100 µM | > 100 | > 100 µM | > 100 µM | – | > 100 µM | > 100 µM | > 100 | – | – | – | – | – | – | – | – | – | – | –
